Where a name gives a salt, the structure may show the parent alone. Read-outs that look alike come from different tables or passages of the source.
Key:
[1] = test system: skeletal muscle of the rat (chronic ischemic); assay: Effect on the contractility of the skeletal muscle after chronic ischemia (tiring index); format: in vivo, rat (male Wistar); settings: for TI of ischemic treated muscle: tiring index = maximum contractility / residual force after 5 min stimulation; for change in vivo at 6 mg/kg: Rattus norvegicus, po, 168 h, read-out: Percentage change (TI of ischemic treated muscle vs TI of normal non-treated muscle)
Excerpt: 1) Effect on the Contractility of the Skeletal Muscle After Chronic Ischemia
In recent years, a marked change has taken place in ideas about the pathophysiology of chronic peripheral arterial occlusive disease as scientific interest has to an increasing extent shifted from the macrocirculation to the microcirculation. Disturbances in the microcirculation therefore manifest themselves in an undersupply of substrates with tissue ischemia resulting therefrom which, in turn, leads to an impairment in the function of the extremity concerned. The logical consequence of this is that the target organ skeletal muscle comes more and more into the forefront. […] The clinical activity is in fact also consistently determined in humans with the aid of the painless walking distance on the moving walkway.
Male Wistar rats having a body weight of 380 to 410 g were used as experimental animals. Under hexobarbital anesthesia (®Evipan--sodium, 200 mg/kg BW (=body weight) i.p.), a unilateral ligature of the right femoral artery was applied to the animals in the groin. After sprinkling penicillin sulfonamide powder for antibiotic wound care, the small operation wound was closed and the animals were continuously observed until they were completely awake. One week later, the administration of substance began by oral administration using a stomach tube (6 mg/kg BW, carboxymethylcellulose-sodium suspension) and was continued for 7 days (single administration per day, about 7h30 to 8h30). The contractility was measured 24 h after the last administration of substance in order to exclude acute effects, to be precise by the following experimental protocol:
Superfusion with physiological saline solution (37° C.) was used to avoid drying out and cooling. The mean arterial blood pressure was recorded continuously via Statham (=blood pressure measuring device) by means of a cannulated caroted artery to control the physiological status of the animals during the experiment. All animals breathed spontaneously by means of an inserted tracheal tube.
After these preparations, the muscle was made to contract (Stimulator I, Hugo Sachs, Federal Republic of Germany) by direct electrical stimulation (2.5 mA, 2 Hz). The absolute contractility in grams at various times of stimulation was used as the measured parameter. […] If the maximum contractility at the start of stimulation is now divided by the residual force remaining after 5 minutes' tiring stimulation, a "tiring index TI" for the muscle concerned can be calculated; the ability to tire here is larger the larger TI is numerically.
4 to 6 individual experiments were carried out for each test preparation.

[2] = test system: laser-induced thrombosis in mesenterial arterioles; assay: Inhibition of laser-induced thrombosis in mesenterial arterioles of the rat; format: in vivo, rat (female Sprague-Dawley); settings: for inhibition in vivo at 10 mg/kg / inhibition in vivo at 20 mg/kg: Rattus norvegicus, po, read-out: Percentage change vs control (inhibition of laser-induced thrombosis); for inhibition in vivo at 10 mg/kg: 10 mg/kg p.o.
[3] = Acute toxicity (LD50 range); settings: mouse, in vivo, iv, single administration, NMRI mice, 7 days
Protocol: The determination of the LD50 ranges was carried out in standard fashion by means of the mortality occurring in the course of 7 days in NMRI mice after single intravenous (i.v.) or intraperitoneal (i.p.) administration (NMRI=NIH Medical Research Institute).

[4] = 6 mg/kg p.o. over 7 days, n = 4-6, smaller value = more effective
[5] = 6 mg/kg p.o. over 7 days, n = 4-6

Compound	TI of ischemic treated muscle [1, 5]	change in vivo at 6 mg/kg [1, 4]	further results
1-[3-(1-methyl-5-imidazolesulfonyl)-aminopropyl]-2-pyrrolidinone [Example 43]	2.29	–	Percentage change (TI of ischemic treated muscle vs TI of normal non-treated muscle) [1, 4]: +29.4%; Percentage change vs control (inhibition of laser-induced thrombosis) ([2]; 20 mg/kg p.o.): 15%
Cn1cnc(S(=O)(=O)O)c1Cl [Example 1, 5-Chloro-1-methyl-4-imidazolesulfonic acid]	2.26	1.3%	LD50 at 168 h [3]: > 200 mg/kg; inhibition in vivo at 10 mg/kg [2]: 13%
Cn1cnc(S(=O)(=O)O)c1 [Example 3, 1-Methyl-4-imidazolesulfonic acid]	2.26	7.1%	inhibition in vivo at 20 mg/kg ([2]; 20 mg/kg p.o.): 23%
Cn1cnc(S(=O)(=O)NCCN2CCOCC2)c1 [Example 9, N-(2-morpholinoethyl)-1-methyl-4-imidazolesulfonamide]	2.47	10.3%	–
Cl.Cn1cnc(S(=O)(=O)NCCCCN2CCOCC2)c1 [Example 10, N-(4-morpholinobutyl)-1-methyl-4-imidazolesulfonamide hydrochloride]	2.19	-3.6%	LD50 at 168 h [3]: > 100 mg/kg; inhibition in vivo at 10 mg/kg [2]: 38%
Cl.Cn1cnc(S(=O)(=O)NCCCCCN2CCOCC2)c1 [Example 11, N-(5-morpholinopentyl)-1-methyl-4-imidazolesulfonamide hydrochloride]	2.52	22.9%	–
CC(CNS(=O)(=O)c1cn(C)cn1)CN1CCOCC1.Cl (stereo not drawn) [Example 12, N-(3-morpholino-2-methyl-1-propyl)-1-methyl-4-imidazolesulfonamide hydrochloride]	–	–	LD50 at 168 h [3]: > 100 mg/kg; inhibition in vivo at 20 mg/kg ([2]; 20 mg/kg p.o.): 24%
Cl.Cn1cnc(S(=O)(=O)NCCCN2CCSCC2)c1 [Example 13, N-(3-thiomorpholinopropyl)-1-methyl-4-imidazolesulfonamide hydrochloride]	2.95	-10.1%	inhibition in vivo at 20 mg/kg ([2]; 20 mg/kg p.o.): 14%
Cl.Cn1cnc(S(=O)(=O)NCc2ccc(CN3CCOCC3)cc2)c1 [Example 14, N-[4-(morpholinomethyl)benzyl]-1-methyl-4-imidazolesulfonamide hydrochloride]	2.57	13.4%	LD50 at 168 h [3]: > 100 mg/kg; inhibition in vivo at 20 mg/kg ([2]; 20 mg/kg p.o.): 13%
CCCCN(CCCN1CCOCC1)S(=O)(=O)c1cn(C)cn1.Cl [Example 15, N-butyl-N-(3-morpholino-1-propyl)-1-methyl-4-imidazolesulfonamide hydrochloride]	1.96	10.9%	–
CC1CCCCN1CCCNS(=O)(=O)c1cn(C)cn1.Cl (stereo not drawn) [Example 17, N-[3-(2-methylpiperidino)-propyl]-1-methyl-4-imidazolesulfonamide hydrochloride]	2.04	-14.3%	–
Cn1cnc(S(=O)(=O)NCCCCN2CCC3(CC2)OCCO3)c1 [Example 19, hydrochloride]	2.20	–	change in vivo at 6 mg/kg [1]: 11.1%
Cl.Cn1cnc(S(=O)(=O)NCCN2CCCC2)c1 [Example 20, N-(2-pyrrolidinoethyl)-1-methyl-4-imidazolesulfonamide hydrochloride]	2.56	23.1%	–
CN1CCCC1CCNS(=O)(=O)c1cn(C)cn1.Cl (stereo not drawn) [Example 21, N-[2-(1-methyl-2-pyrrolidinyl)-ethyl]-1-methyl-4-imidazolesulfonamide hydrochloride]	2.34	19.4%	inhibition in vivo at 20 mg/kg ([2]; 20 mg/kg p.o.): 24%
COCCN(CCCNS(=O)(=O)c1cn(C)cn1)CCOC [Example 23]	2.18	23.1%	–
Cl.Cn1cnc(S(=O)(=O)NCCCN2CCN(Cc3ccccc3)CC2)c1 [Example 26, N-[3-(4-benzyl-1-piperazinyl)-propyl]-1-methyl-4-imidazolesulfonamide hydrochloride]	2.49	25.7%	inhibition in vivo at 10 mg/kg [2]: 24%
CN(CCCNS(=O)(=O)c1cn(C)cn1)Cc1ccccc1 [Example 28, N-[3-(N-Benzyl-N-methylamino)-1-propyl]-1-methyl-4-imidazolesulfonamide hydrogenfumarate]	2.27	14.6%	–
Cc1nc(S(=O)(=O)NCCCN2CCOCC2)cn1C.Cl [Example 33, N-(3-Morpholinopropyl)-1,2-dimethyl-4-imidazolesulfonamide hydrochloride]	2.30	12.2%	inhibition in vivo at 10 mg/kg [2]: 18%
CCn1cnc(S(=O)(=O)NCCCN2CCOCC2)c1 [Example 37, N-(3-Morpholinopropyl)-1-ethyl-4-imidazolesulfonamide hydrogenfumarate]	2.09	-7.9%	–
Cn1cnc(S(=O)(=O)NC(CN2CCOCC2)CN2CCOCC2)c1 [Example 38, N-(1,3-Dimorpholino-2-propyl)-1-methyl-4-imidazolesulfonamide]	2.18	10.1%	inhibition in vivo at 10 mg/kg [2]: 21%
Cn1cnc(S(=O)(=O)Oc2ccc(N3CCN(S(=O)(=O)c4ncn(C)c4Cl)CC3)cc2)c1Cl [Example 41, 1-(1-Methyl-5-chloro-4-imidazolesulfonyl)4-[4-(1-methyl-5-chloro-4-imidazolesulfonyloxy)phenyl]piperazine]	2.18	18.5%	–
Cn1cnc(S(=O)(=O)N2CCSCC2)c1 [Example 42, 4-(1-Methyl-4-imidazolesulfonyl)tetrahydro-4H-1,4-thiazine]	2.84	24.6%	–
Cn1cnc(S(=O)(=O)NCCc2ccc(O)cc2)c1 [Example 45, N-(4-hydroxyphenethyl)-1-methyl-4-imidazolesulfonamide]	2.14	16.3%	–
Cn1cnc(S(=O)(=O)NCCCCCCNS(=O)(=O)c2ncn(C)c2Cl)c1Cl [Example 47, 1,6-bis(5-chloro-1-methyl-4-imidazolesulfonamido)hexane]	2.46	6%	–
Cn1cnc(S(=O)(=O)NCCc2ccc(OCC(=O)O)cc2)c1 [Example 51, 4-[2-(1-Methyl-4-imidazolesulfonyl)aminoethyl]phenoxyacetic acid]	2.92	23.7%	–
Cn1cnc(S(=O)(=O)NCCc2ccc(OCC(=O)O)cc2)c1Cl [Example 52, 4-[2-(5-Chloro-1-methyl-4-imidazolesulfonyl)aminoethyl]phenoxyacetic acid]	2.16	17.4%	–
Cn1cnc(S(=O)(=O)NCCC[N+]2(C)CCOCC2)c1 [Example 56, 4-Methyl-4-[3-(1-methyl-4-imidazolesulfamoyl)-1-propyl]morpholinium iodide]	–	–	LD50 at 168 h [3]: > 100 mg/kg; inhibition in vivo at 10 mg/kg [2]: 24%
Cn1cnc(S(=O)(=O)N2CCS(=O)(=O)CC2)c1 [Example 57, 4-(1-Methyl-4-imidazolesulfonyl)tetrahydro-4H-1,4-thiazine-1,1-dioxide]	–	–	inhibition in vivo at 10 mg/kg [2]: 19%
CCOC(=O)COc1ccc(N2CCN(S(=O)(=O)c3ncn(C)c3Cl)CC2)cc1 [Example 58, Ethyl 4-[4-(5-chloro-1-methyl-4-imidazolesulfonyl)piperazinyl]phenoxyacetate]	2.07	-1.9%	–
CNCCCNS(=O)(=O)c1cn(C)cn1.Cl [Example 62, N-(3-Methylamino-1-propyl)-1-methyl-4-imidazolesulfonamide hydrochloride]	2.5	27.8%	–

Source: patent publication US5232922A, “Imidazole compounds, processes for their preparation, pharmaceuticals based on these compounds and some intermediates” (priority 1990, dated 1993)
